Results from patent US20250161245A1, “A MIXTURE OF UREA, BIURET AND N-CONTAINING BY-PRODUCTS CREATED DURING BIURET PRODUCTION AS A DIETARY NON-PROTEIN NITROGEN-SOURCE FOR RUMINANTS AND USES THEREOF” (Yara International ASA, priority 2022, published 2025).

Test system: rumen microbiota
Experiment: Gas Production Test, in vitro rumen fermentation model (Example 1)
Format: cell-based
Details: for lag period of cumulative gas production: buffered rumen fluid, 39° C.; for part still unused by the rumen microbes after 24 hours: based on the cumulative gas production profiles; for cumulative gas production after 72 hours (comparison): isonitrogenous, 72 hours in vitro incubation, against blank and other NPN sources
Protocol: The in vitro model used to simulate rumen digestion and utilization of the products is the Gas Production Test protocol, adapted for protein digestibility, as described in more detail in the following paragraph.
Approximately 1 liter of rumen fluid was collected from two different rumen-fistulated animals in the morning. Rumen fluid was strained through a cheesecloth, kept at 39° C. under CO2 and then diluted 1:19 with a nitrogen-free buffer and mineral solution containing 10.03 g NaHCO3, 1.43 g Na2HPO4, 1.55 g KH2PO4, 0.15 g MgSO4·7H2O, 0.52 g Na2S, 0.017 g CaCl2·2H2O, 0.015 g MnCl2·4H2O, 0.002 g […], 0.012 g FeCl3·6H2O and 0.125 mg resazurin per liter.
To ensure the rumen fluid was depleted of free nitrogen and to ensure nitrogen would be the limiting factor for the microbial growth at the start of the experiment, the buffered rumen fluid was pre-incubated for 4 hours at 39° C. with a carbohydrate overload of glucose, xylose and soluble starch, each at 3.33 g/l. During this pre-incubation, all nitrogen available in the rumen fluid would be incorporated into bacterial protein and other bacterial nitrogen-containing components.
Each product was weighed into different glass bottles on an isonitrogenous base, providing 15 mg N per flask. Then, 60 ml of the pre-incubated buffered rumen fluid was added, under continuous flushing with CO2. Flasks were closed with rubber stoppers and placed in a shaking water bath with 50 movements per minute at 39° C. to start the incubation period. The gas production of each flask was recorded continuously for 72 hours using a fully automated system. All test products including a blank (i.e. no product added to the flask of rumen fluid) were tested in one run in triplicate.
The cumulative gas production was measured continuously for 72 hours.

[1] = 15 mg N per flask, 72 hours incubation

Row | SMILES | time after which gas production stopped / maximum cumulative gas production (end level) was reached [1] | lag period of cumulative gas production [1] | part still unused by the rumen microbes after 24 hours | time of highest (peak) gas production [1] | gas production rate from 20 to 50 hours (20 to 50 hours of incubation) | cumulative gas production after 72 hours (comparison)
1 | NC(=O)NC(N)=O [Biuret] | 40 h | approximately 5 hours | approximately 60% |  |  | 
2 | NC(=O)NC(=O)NC(N)=O [Triuret] | 60 h | 9 h | approximately 60% | 20 h | approximately 4 ml/hour | 
3 | Nc1nc(=O)[nH]c(=O)[nH]1 [ammelide, Ammelide] |  |  |  |  |  | not significantly different
4 | O=c1[nH]c(=O)[nH]c(=O)[nH]1 [cyanuric acid, Cyanuric acid] |  |  |  |  |  | not significantly different
